Source: US8541607B2, “Disulfide, sulfide, sulfoxide, and sulfone derivatives of cyclic sugars and uses thereof” (Lacer, S.A., priority 2003, dated 2013)

What was measured:
arterial rings = assay: Test of vasorelaxation on arterial rings contracted with phenylephrine; format: cell-based; conditions: artery ring contracted with 1 μM Phenylephrine; mean ± s.d.; read-out: EC50 (vasodilatation equal to 50% of the maximum tone)
Experimental: The method used in the assays is substantially the same as described in following references: • * Furchgot, R. F., “Methods in nitric oxide research”; Feelisch & Stamler, eds., John Wiley & Sons, Chichester, England, pp 567-581. • * Trongvanbichnam K., et al., Jpn. J. Pharmacol. 71 (1996); 167-173. • * Sales, E., at al., Eur. J. Pharmacol. 258 (1994); 47-55.
The different compounds are tested at 5 different concentrations, at a concentration range from 0.0001 to 10 mM, using from 6 to 9 arterial rings for each compound. The obtained results are compared to those from the isosorbide 5-mononitrate, which is used as reference product.
The results are shown in table 1 below and are provided as EC50 (effective concentration 50), which is the concentration of each of the tested, compounds yielding a vasodilatation equal to 50% of the maximum tone at which the artery ring has been contracted with 1 μM of Phenylephrine.

[1] = tested on: platelets (Human Platelet Rich Plasma); assay: In vitro inhibition of ADP-induced platelet aggregation; format: cell-based; conditions: submaximal ADP (1-4 μM), mean ± s.d.
Experimental: The method used in the assays is substantially the same as described in following reference: • * Sales, E., at al., Br. J. Pharmacol. 112 (1994); 1071-1076.
The compounds are tested at four different concentrations, using platelet rich plasma from not less than 6 different healthy human donors. The results obtained are compared to those from 5-isosorbide mononitrate, which is used as reference product.
The results are shown in table 2 and are expressed as IC50 (inhibitory concentration 50), which is the concentration of each of the tested compounds yielding an inhibition equal to 50% of the aggregation obtained with a submaximal concentration (1-4 μM) of ADP (a submaximal concentration of ADP is the minimal amount of ADP which produces the maximal aggregation).

[2] = tested on: U937 monocyte adhesion to activated HMEC-1 human endothelial cells; assay: Inhibition of U937 monocyte adhesion to TNF-α activated HMEC-1; format: cell-based; conditions: HMEC-1 activated by TNF-α (50 ng/ml); mean ± s.e.m.
Excerpt: The methods used in the assays to determine the effect of the compounds on platelet and monocyte adhesion to human endothelial cells are substantially the same as described in the following references: • Del Maschio A. et al., J Cell Biol 1996; 135: 497-510 • Bombeli T. et al., Blood 1999; 93: 3831-3838 • Colomé C. et al; Atherosclerosis 2000; 149: 295-302; and • Martin-Satue M. at al; British Journal of Cancer 1999; 80; 1169-1174
The adhesion of the U937-monocyte cells to confluent human microvasculature endothelial cells (HMEC-1) activated by means of TNF-α (50 ng/ml) and the platelets to human umbilical endothelial cells (HUVEC) were the methods used to determine the inhibitory effect of compounds on cellular adhesion. The adhesion of monocytes previously labeled with calcein-2M (Molecular Probes) to HMEC-1 activated by TNF-α, was assessed by determination of the associated-cell fluorescence. The adhesion of washed human platelets previously labeled with MoAb against CD36-FITC to activated-HUVEC (50 μg/ml of LDL minimally modified, LDLmm) was determined by Laser Scanning Cytometry (LSC, Olympus) determining the associated-cell fluorescence. Results are expressed as the percentage of inhibition respect to control (adhesion of the cells in the absence of compounds).

[3] = tested on: human microvascular endothelial cells (HMEC-1); assay: Inhibition of LDL-Dil transcytosis through HMEC-1; format: cell-based; conditions: 2 h, mean ± s.e.m.; for Inhibition of LDL transcytosis, % of inhibition to control, Stimulated cells: HMEC-1 activated with 100 μM histamine; for Inhibition of LDL transcytosis, % of inhibition to control, Resting cells: non activated HMEC-1
Excerpt: The method used in the assays to determine the effect of the compounds on LDL transcytosis in human microvascular endothelial cells is substantially the same as described in Colomé C. et al; Atherosclerosis 2000; 149: 295-302. This test allows a prediction on the anti-atherosclerotic potential of the compounds, since the accumulation of LDL in the vascular wall as a consequence of a vascular endothelial cell active transport is one of the first steps in the development of atherosclerosis.
The method used in the assays to isolate LDL particles from fresh human plasma and the labelling with Di1 is substantially the same as described in Pedreño J. et al., Atherosclerosis 2001; 155: 99-112, and Stephan Z. F. and Yuracheck E. C. J. Lipid Res. 1993; 34:325-330
Activated (100 μM histamine) and non activated HMEC-1 were cultivated in the upper well of inserted of coculture until to reach confluence (Falcon HTS FluorBloK). Then, LPL-Dil (up to 200 μg/ml) was added and cells were incubated for 2 h in the presence and absence of compounds. After these two hours, transcytosis of LDL-Dil particles through endothelial cells was assessed by determination of the presence of fluorescence in the lower well of insert of coculture. Results are expressed as percentage of inhibition respect to control in the absence of compounds).

HUVEC cells = assay: In vitro protection against cytotoxicity induced by oxygen radicals (peroxynitrite), XTT method; format: cell-based, human; conditions: HUVEC pre-treated with 50 μM compound for one hour, then 800 μM peroxynitrite overnight
Excerpt: The method used is substantially the same as described by Caveda L., et al. (J. Clin. Invest. […]; 98: 886-893).
For the determination of the capacity to inhibit the cytotoxicity induced by oxygen radicals Human Umbilical Vein Endothelial Cells (HUVEC) were used. HUVEC were isolated and cultured in M199 and 20% FCS (Fetal Calf Serum).
Test XTT assay is based on […] by the metabolically active cells of the salt of tetrazolio XTT to form an orange product, the formazan dye formed is soluble and is directly quantified using an spectrophotometer.
HUVEC cells were cultivated until a sub-confluence status in a 96 well tissue culture plate and pre-treated with 50 μM of the compound for one hour. After that, cells were treated with 800 μM of peroxynitrite for an overnight.
After overnight incubation cells were incubated with the yellow XTT solution (final concentration 0.3 mg/ml) for 4 hours. After this incubation period, orange formazan solution was formed, which was spectrophotometrically quantified using an ELISA plate reader at 450 nm
The results are shown in table 15 and are expressed as percentage of death cells.

EC50 (arterial rings) [µM]	IC50 [1] [µM]	SMILES	% of inhibition to control, U937 monocyte adhesion [2] [%]	Inhibition of LDL transcytosis, % of inhibition to control, Stimulated cells [3] [%]	Inhibition of LDL transcytosis, % of inhibition to control, Resting cells [3] [%]	% of death cells (HUVEC cells) [%]
41 ± 6	110 ± 10	O=[N+]([O-])O[C@@H]1CO[C@H]2[C@@H]1OC[C@@H]2S [(1), 2-thioisosorbide 5-mononitrate]	30 ± 8	122 ± 8	58 ± 15	80
23 ± 10	89 ± 10	CC(=O)S[C@H]1CO[C@H]2[C@@H]1OC[C@H]2O[N+](=O)[O-] [(12), 2-acetylthio-isosorbide-5-mononitrate]	15 ± 2	80 ± 12	51 ± 19	50
